{
  "source": "patent US20150231236A1",
  "about": "“METHODS FOR TREATING PATIENTS WITH HYPERCHOLESTEROLEMIA THAT IS NOT ADEQUATELY CONTROLLED BY MODERATE-DOSE STATIN THERAPY” (Regeneron Pharmaceuticals, Inc., priority 2014, published 2015)",
  "system": "patients with hypercholesterolemia at high CV risk not adequately controlled with atorvastatin (20 mg or 40 mg)",
  "assay": "Example 2: randomized, double-blind trial, lipid efficacy of mAb316P add-on to atorvastatin vs EZE add-on, atorvastatin dose doubling or switch to rosuvastatin",
  "format": "in vivo, human",
  "settings": "ITT Population",
  "protocol": "The present study was a randomized, double-blind, active-comparator, parallel-group study in patients at high CV risk with non-FH or heFH who are not adequately controlled with atorvastatin (20 mg or 40 mg) with or without other lipid-modifying therapy (LMT) (excluding EZE). The study design is illustrated in FIG. 1. Patients who entered the study were taking either atorvastatin 20 mg or atorvastatin 40 mg. The former patients were randomized to 1 of 3 treatment arms (arms 1 to 3); the latter patients were randomized to 1 of 4 treatment arms (arms 4 to 7). The treatment arms are as follows:\n(1) mAb316P+atorvastatin 20 mg+placebo-EZE; (2) Placebo-mAb316P+atorvastatin 40 mg+placebo-EZE; and (3) Placebo-mAb316P+atorvastatin 20 mg+EZE 10 mg.\n(4) mAb316P+atorvastatin 40 mg+placebo-EZE; (5) Placebo-mAb316P+atorvastatin 80 mg+placebo-EZE; (6). Placebo-mAb316P+rosuvastatin 40 mg+placebo-EZE; and (7) Placebo-mAb316P+atorvastatin 40 mg+EZE 10 mg.\n(B) a double-blind treatment period of 24 weeks. Each patient received a SC injection Q2W (mAb316P or placebo-mAb316P) and was administered (or instructed to take) 2 oral blinded medications daily (a statin [atorvastatin or rosuvastatin] and EZE or placebo-EZE). The first injection of mAb316P or placebo-mAb316P was administered at the clinical site on day 1, after study assessments were completed, and as soon as possible after the patient was randomized into the study. The patient/caregiver administered subsequent injections outside of the clinic according to the dosing schedule. On days where the clinic study visit coincided with dosing, the dose of study drugs (injectable and oral) were administered after all study assessments had been performed and all laboratory samples collected. The last dose of mAb316P or placebo-mAb316P was administered at week 22. The last dose of daily oral study drugs was administered at week 24. At week 12, based on their baseline CV risk, certain patients randomized to mAb316P in a blinded manner, had their dose increased as follows:\nEach patient received a subcutaneous (SC) injection once every two weeks (Q2W) (mAb316P or placebo-mAb316P) and took 2 oral blinded medications daily (a statin [atorvastatin or rosuvastatin] and EZE or placebo-EZE).\nThe injectable study treatment was a single SC injection of 1 mL for a 75 mg or 150 mg dose of mAb316P or placebo-mAb316P provided in an auto-injector, administered in the abdomen, thigh, or outer area of the upper arm. The first injection of study drug was administered at the clinical site, as soon as possible after the patient was randomized into the study. The patient was monitored at the clinical site for at least 30 minutes following the first injection. The patient/caregiver administered subsequent injections outside of the clinic, according to the dosing schedule. On days where the clinic study visit coincided with dosing, the dose of study drug was administered after all study assessments have been performed and all laboratory samples collected.\nThe dose of mAb316P was increased, in a blinded manner, from 75 mg to 150 mg SC Q2W, starting at week 12, based on baseline CV risk in the following circumstances:\nThe primary efficacy endpoint was the percent change in calculated LDL-C from baseline to week 24, which is defined as: 100× (calculated LDL-C value at week 24−calculated LDL-C value at baseline)/calculated LDL-C value at baseline. The baseline calculated LDL-C value was the last LDL-C level obtained before the first double-blind study drug injection. The calculated LDL-C at week 24 will be the LDL-C level obtained within the week 24 analysis window and during the main efficacy period. The main efficacy period was defined as the time from the first double-blind study drug injection up to 21 days after the last double-blind study drug injection or up to the upper limit of the week 24 analysis window, whichever comes first.\nTotal-C, HDL-C, TG, ApoB, ApoA-1, and Lp (a) were directly measured by a central laboratory. […]",
  "key": {"[1]": {"settings": "Comparison 1: mAb316P + atorva 20 mg arm vs. atorva 40 mg arm"}, "[2]": {"settings": "Comparison 2: mAb316P + atorva 20 mg arm vs. EZE + atorva 20 mg arm"}, "[3]": {"settings": "Comparison 3: mAb316P + atorva 40 mg arm vs. atorva 80 mg arm"}, "[4]": {"settings": "Comparison 4: mAb316P + atorva 40 mg arm vs. rosuva 40 mg arm"}},
  "data": [
    {"substance": "mAb316P: human anti-PCSK9 antibody; heavy chain SEQ ID NO:5, light chain SEQ ID NO:9", "values": [
      {"measurement": "Delta, percent change from baseline of Apo B to week 24", "setting": "[1]", "result": "−29.3", "unit": "%"},
      {"measurement": "Delta, percent change from baseline of Apo-B to week 12", "setting": "[1]", "result": "−31.5", "unit": "%"},
      {"measurement": "Delta, percent change from baseline of HDL-C to week 24", "setting": "[1]", "result": 2.9, "unit": "%"},
      {"measurement": "Delta, percent change from baseline of Lp(a) to week 24", "setting": "[1]", "result": "−3.4", "unit": "%"},
      {"measurement": "Delta, percent change from baseline of Non-HDL-C to week 12", "setting": "[1]", "result": "−33.5", "unit": "%"},
      {"measurement": "Delta, percent change from baseline of Total-C to week 12", "setting": "[1]", "result": "−22.6", "unit": "%"},
      {"measurement": "Delta, percent change from baseline of Total-C to week 24", "setting": "[1]", "result": "−23.1", "unit": "%"},
      {"measurement": "Delta, percent change from baseline of calculated LDL-C to week 12", "setting": "[1]", "result": "−39.8", "unit": "%"},
      {"measurement": "Delta, percent change from baseline of calculated LDL-C to week 24", "setting": "[1]", "result": "−39.1", "unit": "%"},
      {"measurement": "Delta, percent change from baseline of non-HDL-C to week 24", "setting": "[1]", "result": "−30.4", "unit": "%"},
      {"measurement": "Odds Ratio, proportion of patients reaching calculated LDL-C < 70 mg/dL at Week 24", "setting": "[1]", "result": 28.9},
      {"measurement": "Odds Ratio, proportion of very high CV risk patients reaching calculated LDL-C < 70 mg/dL or high CV risk patients reaching calculated LDL-C < 100 mg/dL at Week 24", "setting": "[1]", "result": 16.3},
      {"measurement": "Delta, percent change from baseline of Apo B to week 24", "setting": "[2]", "result": "−23.6", "unit": "%"},
      {"measurement": "Delta, percent change from baseline of Apo-B to week 12", "setting": "[2]", "result": "−25.3", "unit": "%"},
      {"measurement": "Delta, percent change from baseline of HDL-C to week 24", "setting": "[2]", "result": 4.9, "unit": "%"},
      {"measurement": "Delta, percent change from baseline of Lp(a) to week 24", "setting": "[2]", "result": "−13.0", "unit": "%"},
      {"measurement": "Delta, percent change from baseline of Non-HDL-C to week 12", "setting": "[2]", "result": "−23.4", "unit": "%"},
      {"measurement": "Delta, percent change from baseline of Total-C to week 12", "setting": "[2]", "result": "−15.8", "unit": "%"},
      {"measurement": "Delta, percent change from baseline of Total-C to week 24", "setting": "[2]", "result": "−15.8", "unit": "%"},
      {"measurement": "Delta, percent change from baseline of calculated LDL-C to week 12", "setting": "[2]", "result": "−25.8", "unit": "%"},
      {"measurement": "Delta, percent change from baseline of calculated LDL-C to week 24", "setting": "[2]", "result": "−23.6", "unit": "%"},
      {"measurement": "Delta, percent change from baseline of non-HDL-C to week 24", "setting": "[2]", "result": "−21.6", "unit": "%"},
      {"measurement": "Odds Ratio, proportion of patients reaching calculated LDL-C < 70 mg/dL at Week 24", "setting": "[2]", "result": 4.7},
      {"measurement": "Odds Ratio, proportion of very high CV risk patients reaching calculated LDL-C < 70 mg/dL or high CV risk patients reaching calculated LDL-C < 100 mg/dL at Week 24", "setting": "[2]", "result": 3.7},
      {"measurement": "Delta, percent change from baseline of Apo B to week 24", "setting": "[3]", "result": "−38.4", "unit": "%"},
      {"measurement": "Delta, percent change from baseline of Apo-B to week 12", "setting": "[3]", "result": "−26.7", "unit": "%"},
      {"measurement": "Delta, percent change from baseline of HDL-C to week 24", "setting": "[3]", "result": 2.9, "unit": "%"},
      {"measurement": "Delta, percent change from baseline of Lp(a) to week 24", "setting": "[3]", "result": "−21.1", "unit": "%"},
      {"measurement": "Delta, percent change from baseline of Non-HDL-C to week 12", "setting": "[3]", "result": "−29.3", "unit": "%"},
      {"measurement": "Delta, percent change from baseline of Total-C to week 12", "setting": "[3]", "result": "−19.1", "unit": "%"},
      {"measurement": "Delta, percent change from baseline of Total-C to week 24", "setting": "[3]", "result": "−28.9", "unit": "%"},
      {"measurement": "Delta, percent change from baseline of calculated LDL-C to week 12", "setting": "[3]", "result": "−36.0", "unit": "%"},
      {"measurement": "Delta, percent change from baseline of calculated LDL-C to week 24", "setting": "[3]", "result": "−49.2", "unit": "%"},
      {"measurement": "Delta, percent change from baseline of non-HDL-C to week 24", "setting": "[3]", "result": "−41.1", "unit": "%"},
      {"measurement": "Odds Ratio, proportion of patients reaching calculated LDL-C < 70 mg/dL at Week 24", "setting": "[3]", "result": 116.8},
      {"measurement": "Odds Ratio, proportion of very high CV risk patients reaching calculated LDL-C < 70 mg/dL or high CV risk patients reaching calculated LDL-C < 100 mg/dL at Week 24", "setting": "[3]", "result": 92.5},
      {"measurement": "Delta, percent change from baseline of Apo B to week 24", "setting": "[4]", "result": "−30.9", "unit": "%"},
      {"measurement": "Delta, percent change from baseline of Apo-B to week 12", "setting": "[4]", "result": "−22.2", "unit": "%"},
      {"measurement": "Delta, percent change from baseline of HDL-C to week 24", "setting": "[4]", "result": 2.0, "unit": "%"},
      {"measurement": "Delta, percent change from baseline of Lp(a) to week 24", "setting": "[4]", "result": "−25.9", "unit": "%"},
      {"measurement": "Delta, percent change from baseline of Non-HDL-C to week 12", "setting": "[4]", "result": "−22.5", "unit": "%"},
      {"measurement": "Delta, percent change from baseline of Total-C to week 12", "setting": "[4]", "result": "−15.4", "unit": "%"},
      {"measurement": "Delta, percent change from baseline of Total-C to week 24", "setting": "[4]", "result": "−21.9", "unit": "%"},
      {"measurement": "Delta, percent change from baseline of calculated LDL-C to week 12", "setting": "[4]", "result": "−27.3", "unit": "%"},
      {"measurement": "Delta, percent change from baseline of calculated LDL-C to week 24", "setting": "[4]", "result": "−32.6", "unit": "%"},
      {"measurement": "Delta, percent change from baseline of non-HDL-C to week 24", "setting": "[4]", "result": "−30.2", "unit": "%"},
      {"measurement": "Odds Ratio, proportion of patients reaching calculated LDL-C < 70 mg/dL at Week 24", "setting": "[4]", "result": 13.2},
      {"measurement": "Odds Ratio, proportion of very high CV risk patients reaching calculated LDL-C < 70 mg/dL or high CV risk patients reaching calculated LDL-C < 100 mg/dL at Week 24", "setting": "[4]", "result": 6.1}
    ]}
  ]
}
